Data on 28 molecules can be found in patent publication EP2544684B1, “4,4-DISUBSTITUTED PIPERIDINE DERIVATIVES USEFUL AS INHIBITORS OF DIPEPTIDYL PEPTIDASE-1 (DPP-1)” (Janssen Pharmaceutica NV, priority 2010, dated 2011).

Counter-ions that a name gives are not always drawn.

T1 sequence (P53634 25-463): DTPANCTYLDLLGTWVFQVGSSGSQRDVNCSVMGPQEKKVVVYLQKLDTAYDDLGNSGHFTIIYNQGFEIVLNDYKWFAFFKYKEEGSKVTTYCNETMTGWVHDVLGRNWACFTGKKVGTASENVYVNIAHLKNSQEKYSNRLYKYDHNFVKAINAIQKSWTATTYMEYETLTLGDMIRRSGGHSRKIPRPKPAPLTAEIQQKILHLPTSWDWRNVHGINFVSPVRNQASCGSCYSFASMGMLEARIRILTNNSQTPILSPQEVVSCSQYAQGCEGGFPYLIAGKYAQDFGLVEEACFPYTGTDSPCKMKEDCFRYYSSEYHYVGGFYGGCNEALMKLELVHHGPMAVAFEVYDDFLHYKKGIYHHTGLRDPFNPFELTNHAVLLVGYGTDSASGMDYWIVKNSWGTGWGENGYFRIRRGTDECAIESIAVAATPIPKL

One test has as its target T1, DPP-1 (Cathepsin C) (Homo sapiens, UniProt P53634).
T1 construct: made in house
The test can be described thus: DPP-1 Inhibition Assay (in vitro), fluorogenic substrate GR-AMC. In kind it is biochemical. To be noted: IC50, recombinant human DPP-1 0.15 nM, 10 uM GR-AMC, pH 7.0, room temperature; average value where tested multiple times. As to the method:
Test compounds were assessed for DPP-1 (Cathepsin C) inhibitory activity using a fluorogenic substrate, GR-AMC (Glycine-Arginine-amino-4-methylcoumarin, Bachem, I-1215). The amount of amino-methylcoumarin released is proportional to the DPP-1 activity, and the reaction is monitored kinetically with a Molecular Devices plate reader using black 96-well plates.
All compounds were tested under room temperature conditions. The assay buffer consisted of 50 mM HEPES, pH 7.0, 100 mM NaCl, 2 mM glutathione (GSH), and 0.002% TWEEN 20. GSH and TWEEN 20 were added to the buffer fresh daily. Just prior to use, an in-house preparation of recombinant human DPP-1 (240 µM stock, MW 49.6 kD) was diluted 600-fold in assay buffer containing fresh 2 mM dithiothreitol (DTT) to activate the enzyme, then diluted into assay buffer (without DTT) 133-fold for a DPP-1 working solution of 3 nM. Test compounds were diluted in DMSO for 20x their final assay concentrations.
Additions to a 96-well black Costar 3915 plates were as follows: 90 µL of 11 µM GR-AMC, 5 µL test compound (followed by mixing), and 5 µL 3 nM DPP-1 to start the reaction. Fluorescent reactions were monitored kinetically at 360 nm excitation, 440 nm emission on a Molecular Devices Spectramax XPS reader. The Softmax Pro software of the reader determined the initial velocity of the selected data (the first 3-5 minutes of the reaction), and the best linear regression fit of the initial kinetic data. Final assay conditions were 0.15 nM DPP-1, 10 uM GR-AMC, 50 mM HEPES, pH 7.0, 100 mM NaCl, 2 mM GSH, 0.002% TWEEN 20, 1 uM DTT, 5.0 % DMSO. Initial velocity rates were plotted vs. test compound concentration by use of a four-parameter logistics equation (nonlinear regression, sigmoidal dose-response (variable slope), with fixed Hill (1.0) using GraphPad Prism® software for determination of DPP-1 IC50. Within-run assay coefficient of variation (CV) was generally <10%; between-run CV <20%.
Representative compounds of the present invention were tested according to the procedure as described above, with results as listed in Table 5, below. Table 5: DPP-1 Inhibition
As a reminder, the IC50 is the midpoint of a concentration-inhibition curve. For `N[C@@H](Cc1cccs1)C(=O)N1CCC(Cc2ccc(-c3ccccc3)cc2)(C(=O)N2CCC3CCCCC3C2)CC1` (stereo partly shown) [Compound 7], the half-maximal inhibitory concentration (IC50) was 1300 nM.
The same measure, in the same setting: under `CC[C@H](N)C(=O)N1CCC(Cc2ccc(C(F)(F)F)cc2)(C(=O)OCC2CCCCC2)CC1` [Compound 18] stands 5400 nM; under `CC[C@H](N)C(=O)N1CCC(Cc2cccc(-c3ccccc3)c2)(C(=O)OCC2CCCCC2)CC1` [Compound 29], 9500 nM.
Turning to `N[C@@H](Cc1c[nH]cn1)C(=O)N1CCC(Cc2cccc(-c3ccccc3)c2)(C(=O)OCC2CCCCC2)CC1` [Compound 31], the half-maximal inhibitory concentration (IC50) is 5800 nM.
Consider `CSC[C@H](N)C(=O)N1CCC(Cc2ccc(-c3ccccc3)cc2)(C(=O)NC2CCCCC2)CC1` [Compound 38], for which the IC50 is 750 nM.
Regarding `N#CC1(c2cc(C(F)(F)F)cc(C(F)(F)F)c2)CCN(C(=O)C(N)Cc2cccs2)CC1` (stereo not shown) [Compound 118], the IC50 is 3400 nM.

The same test, now with this note: recombinant human DPP-1 0.15 nM, 10 uM GR-AMC, pH 7.0, room temperature; average value where tested multiple times; read-out: IC50.
Take `N[C@@H](Cc1cccs1)C(=O)N1CCC(Cc2ccc(-c3ccccc3)cc2)(C(=O)NCC2CCOCC2)CC1` [Compound 6, (S)-1-(2-amino-3-(thiophen-2-yl)propanoyl)-4-(biphenyl-4-ylmethyl)-N-((tetrahydro-2H-pyran-4-yl)methyl)piperidine-4-carboxamide hydrochloride]: the IC50 was found to be 74 nM.
The same measure, in the same setting: under `N#Cc1ccc(CC2(C(=O)OCC3CCCCC3)CCN(C(=O)[C@@H](N)Cc3cccs3)CC2)cc1` [Compound 15, (S)-cyclohexylmethyl 1-(2-amino-3-(thiophen-2-yl)propanoyl)-4-(4-cyanobenzyl)piperidine-4-carboxylate hydrochloride] stands 83 nM; under `C#CC[C@H](N)C(=O)N1CCC(Cc2ccc(-c3ccccc3)cc2)(C(=O)NC2CCCCC2)CC1` [Compound 35], above 20000 nM; under `COc1cccc(-c2ccc(CC3(C(=O)NC4CCCCC4)CCN(C(=O)[C@@H](N)Cc4cccs4)CC3)cc2)c1` [Compound 47, (S)-1-(2-amino-3-(thiophen-2-yl)propanoyl)-N-cyclohexyl-4-((3'-methoxybiphenyl-4-yl)methyl)piperidine-4-carboxamide hydrochloride], 34 nM.
Regarding `CN(C)C(=O)c1ccc(CC2(C(=O)NC3CCCCC3)CCN(C(=O)[C@@H](N)Cc3cccs3)CC2)cc1` [Compound 59, (S)-1-(2-amino-3-(thiophen-2-yl)propanoyl)-N-cyclohexyl-4-(4-(dimethylcarbamoyl)benzyl)piperidine-4-carboxamide hydrochloride], the IC50 stood at 86 nM.
Same read-out and setting: the result for `CS(=O)(=O)CC[C@H](N)C(=O)N1CCC(Cc2ccc(I)cc2)(C(=O)NC2CCCCC2)CC1` [Compound 74] reads above 20000 nM.
Regarding `N[C@@H](Cc1cccs1)C(=O)N1CCC(Cc2ccccc2C(=O)O)(C(=O)NC2CCCCC2)CC1` [Compound 80, 2-[1-(2-(S)-Amino-3-thiophen-2-yl-propionyl)-4-cyclohexylcarbamoyl-piperidin-4-ylmethyl]-benzoic acid hydrochloride], the IC50 is 220 nM.
In the case of `N[C@@H](Cc1cccs1)C(=O)N1CCC(Cc2ccc(NS(=O)(=O)c3ccccn3)cc2)(C(=O)NC2CCCCC2)CC1` [Compound 87, (S)-1-(2-amino-3-(thiophen-2-yl)propanoyl)-N-cyclohexyl-4-(4-(pyridine-2-sulfonamido)benzyl)piperidine-4-carboxamide hydrochloride], the IC50 was determined as 20 nM.
Still for that read-out and setting: under `CC(=O)Nc1ccc(CC2(C(=O)NC3CCCCC3)CCN(C(=O)[C@@H](N)Cc3cccs3)CC2)cc1` [Compound 90, (S)-4-(4-acetamidobenzyl)-1-(2-amino-3-(thiophen-2-yl)propanoyl)-N-cyclohexylpiperidine-4-carboxamide hydrochloride] stands 49 nM; under `CC[S+]([O-])CCC(N)C(=O)N1CCC(Cc2ccc(-c3ccccc3)cc2)(C(=O)NCC2CCCCC2)CC1` (stereo not shown) [Compound 107], above 20000 nM; under `COC(=O)C1CCC(NC(=O)C2(c3ccccc3)CCN(C(=O)C(N)Cc3cccs3)CC2)CC1` (stereo not shown) [Compound 109], 25 nM.
Still for that read-out and setting: the result for `N[C@@H](Cc1cccs1)C(=O)N1CCC(C(=O)N[C@H]2CC[C@H](C(=O)O)CC2)(c2ccccc2)CC1` [Compound 111, 4-{[1-(2-(S)-Amino-3-thiophen-2-yl-propionyl)-4-phenyl-piperidine-4-carbonyl]-amino}-trans-cyclohexanecarboxylic acid] reads 89 nM; that for `COC(=O)C1CCC(NC(=O)C2(c3ccccc3)CCN(C(=O)C(N)Cc3cccs3)CC2)CC1` (stereo not shown) [Compound 113], 70 nM.
For the molecule `NC(=O)c1ccc(CC2(C(=O)NCC3CCCCC3)CCN(C(=O)[C@@H](N)Cc3cccs3)CC2)cc1` [Compound 116, (S)-1-(2-amino-3-(thiophen-2-yl)propanoyl)-4-(4-carbamoylbenzyl)-N-(cyclohexylmethyl)piperidine-4-carboxamide hydrochloride], the IC50 came to 50 nM.
The same measure, in the same setting: under `NC(=O)c1ccc(CC2(C(=O)NC3CCC(O)CC3)CCN(C(=O)C(N)Cc3cccs3)CC2)cc1` (stereo not shown) [Compound 117] stands 330 nM; under `NC(C(=O)N1CCC(Cc2ccc(-c3ccccc3)cc2)(C(=O)NCC2CCCCC2)CC1)C(O)c1cccs1` (stereo not shown) [Compound 123], 820 nM; under `N#Cc1ccc(CC2(C(=O)NC3CCC(O)CC3)CCN(C(=O)C(N)Cc3cccs3)CC2)cc1` (stereo not shown) [Compound 125], 160 nM.
Still for that read-out and setting: the result for `N[C@@H](Cc1cccs1)C(=O)N1CCC(Cc2ccc(-c3nnn[nH]3)cc2)(C(=O)NC2CCCCC2)CC1` [Compound 126, (S)-4-(4-(1H-tetrazol-5-yl)benzyl)-1-(2-amino-3-(thiophen-2-yl)propanoyl)-N-cyclohexylpiperidine-4-carboxamide hydrochloride] reads 170 nM; that for `NC(Cc1cccs1)C(=O)N1CCC(Cc2ccc(-c3nnn[nH]3)cc2)(C(=O)NC2CCC(O)CC2)CC1` (stereo not shown) [Compound 128], 690 nM.
The same measure, in the same setting: under `Cc1ccc(C2(C(=O)NC3CCC(O)CC3)CCN(C(=O)C(N)Cc3cccs3)CC2)cc1` (stereo not shown) [Compound 131] stands 140 nM; under `N[C@@H](Cc1cccs1)C(=O)N1CCC(C(=O)NCC2CCCCC2)(c2cc(C(F)(F)F)cc(C(F)(F)F)c2)CC1` [Compound 133, 1-(2-(S)-Amino-3-thiophen-2-yl-propionyl)-4-(3,5-bis-trifluoromethyl-phenyl)-piperidine-4-carboxylic acid cyclohexylmethylamide hydrochloride], 67 nM.
In the case of `CN1CCC(CNC(=O)C2(c3ccccc3)CCN(C(=O)C(N)Cc3cccs3)CC2)CC1` (stereo not shown) [Compound 152], the IC50 was 820 nM.
